Read-outs that look alike come from different tables or passages of the source.
Experiments:
Type in all cases: cell-based
HepG2 = assay: Proliferation assay; conditions: for EC50: Homo sapiens, 96 h, 4 days
From the text: (§1) The cell lines HepG2 (ACC180, RRID:CVCL_0027; DMSZ, Braunschweig Germany), SNU-475 (CRL-2236, Lot. 58483227, RRID:CVCL_0497; ATCC, Manassas, Virginia, US), SNU-387 (CRL-2237, Lot. 58483192, RRID:CVCL_0250; ATCC, Virginia, US), PLC/PRF/5 (300315, Lot. 812, RRID:CVCL_0485; CLS Cell Lines Service GmbH, Eppelheim, Germany) and HuH-7 (JCRB0403, Lot. 2272008, RRID:CVCL_0336; JCRB Cell Bank, Japan) were propagated according to the distributor’s guidelines. The authenticity of the cell lines was confirmed by short tandem repeat (STR) analysis (DSMZ, Braunschweig, Germany). Mycoplasma contamination was ruled out by PCR testing. For assays with platelet lysate (PL), FBS was substituted with 10% PLTMax Human Platelet Lysate (Cat. Nr. SCM141, Lot Number VP1602259; Millipore, Burlington, Massachusetts, US). The PL was supplemented with 20 U/ml Heparin (Heparin sodium salt from porcine intestinal mucosa, H4784-250MG; Sigma-Aldrich, Taufkirchen, Germany) to prevent coagulation.
(§2) Prior to the assay, the optimal seeding density was determined for each cell line to obtain an exponential growth during the experiment (2000 to 6000 cells per 96-well). Drug dilution series with 8 concentrations were prepared for EC50 determinations of single drugs. Three wells for each concentration were seeded (technical replicates). For drug combinations, dilution series of six concentrations for each drug alone or in combination at equal ratio were prepared. After 4 h of cell seeding, the drugs were added to the cells. Each 96-well plate contained a vehicle control (0.1% or 0.2% DMSO), a death control Ro 106-9920 (Tocris Cookson Ltd., Bristol, UK) a growth control (untreated cells compared to vehicle treated cells), and blank wells without cells. The proliferation assay was stopped after 4 days by crystal violet staining of the cells (0.5% in 20% methanol). Following extraction of the crystal violet with 8% acetic acid, the eluates were quantified photometrically at 570 nm and the reference wavelength 690 nm in an absorbance microplate reader (Tecan Sunrise; Tecan, Männedorf, Switzerland). Only readouts from 96-well plates with a Z-factor between 0.5 and 1.0 were used. Blank OD values were subtracted from the mean OD values. Nonlinear curve fitting and EC50 calculation was performed with Excel Solver.

PLC/PRF/5 = assay: Proliferation assay; conditions: for EC50: Homo sapiens, 96 h, 4 days
From the text: as §1, §2

HuH-7 = assay: Proliferation assay; conditions: for EC50: Homo sapiens, 96 h, 4 days
From the text: as §1, §2

SKOV3 = assay: Efficacy screening assay; conditions: SKOV3, ovary
Description: labelled fluorogenic peptide substrates: fluorogenic peptide from p53 residues 379-382 (RHKK(Ac)AMC) for HDAC1, 2, 3, 6, 10, 11; fluorogenic HDAC Class IIa Substrate (Trifluoro acetyl Lysine, Ac-LGK(TFA)-AMC) for HDAC 4, 5, 7, 9; and fluorogenic peptide from p53 residues 379-382 (RHK(Ac)K(Ac)AMC) for HDAC8. 1 mg/mL BSA and DMSO was added to the assay buffer (50 mM Tris-HCl, pH 8.0; 137 mM NaCl; 2.7 mM KCl; 1 mM MgCl2) prior to use. In a two-step reaction, the substrate with the acetylated lysine side chain was incubated for with a sample containing HDAC activity to p roduce the deacetylated products: 1 h at 30°C for HDAC1, 2, 3 and 6; 30 min at RT for HDAC4, 5, 7 and 9; 2 h at 30°C for HDAC8, 10 and 11. In a second step, the deacetylated products were digested by the addition of developer for 1 h at 30°C to produce the fluorescent signal proportional to the amount of deacetylated substrates and the fluorescence was measured using an Envision plate reader at 355 nm (excitation) and 460 nm (emission). A kinetic measurement was performed for ~1 h with 5 min intervals and d ata from the final time point were analysed. IC50 values and curve fits were obtained using GraphPad Softwar e.
The experiment was performed by Oncolead GmbH & Co. KG (Karlsfeld , Germany), based on a standardized screening procedure . Cell lines were purchased directly from the ATCC, NCI and DSMZ cell line c ollections. Cells used for the study had undergone less than 20 passages. To ensure the absence of potential contamination and wrong assignment, all cell lines were tested using a whole genome assay (Agilent, USA). All cell lines were grown as recommended by the suppliers and with addition of 100 U/mL penicillin G and 100 µg/mL; streptomycin. Cell growth and treatments were performed in Nunclon D 96 -well plates (NUNC, Germany). The optimal seeding density for each cell line was determined to ensure exponential growth for the duration of the experiment. All cells growing without anti-cancer agents were sub-conﬂuent by the end of the treatment, as determined by visual inspection.
After an initial 24 h pre-growth period, the compounds were added. The vehicle concentration […]
was 0.1% DMSO. After incubation at 37°C for 72 h, the culture medium was aspirated, and the cells were precipitated by the addition of 10% trichloroacetic acid (Sigma-Aldrich, Missouri, US). After overnight incubation at 4°C, the plates were washed three times with deionized water. The precipitates were then stained with SRB (0.4% wt/v sulforhodamine B solution in 1% acetic acid, Sigma-Aldrich, Missouri, US). Afterwards, the plates were washed six times with 1% acetic acid to remove unbound stain. After drying the plates at room temperature, the bound SRB was solubilized with 10 mM Tris base and the optical density was measured at 520 nm using a Victor2 plate reader (Perkin Elmer, Germany). Blank OD values were subtracted from mean OD values for each concentration. The nonlinear curve ﬁtting and EC50 calculations were per formed using XLﬁt and algorithm “205” (ID Business […]
For cell-based and other in vitro assays, data are presented as data mean ± SD of at least […]
For the orthotopic mouse model, data are presented as mean + SEM. For statistical analysis, one-way ANOVA and multiple comparison (Dunnett) was performed for compound treatments compared to vehicle control. The adjusted p-values with 95% confidence interval were reported as significant. For comparison of EC50 values in Figure 1F, one-way ANOVA with multiple comparison testing (Tukey) was performed. Multiplicity adjusted p -values for the EC50 with sorafenib versus resminostat for each cell line and comparison between cell lines for sorafenib are presented (95% confidence interval for significance testing). For comparison of EC50 data in Figure 2B, one-way ANOVA with multiple comparison testing (Tukey) was performed. Multiplicity adjusted p-values with 95% confidence interval was applied. For the […]

SMILES: CN(C)Cc1ccc(S(=O)(=O)n2ccc(/C=C/C(=O)NO)c2)cc1 [resminostat, Resminostat]
- Ratio PL/FBS (HepG2; HepG2, ratio of PL/FBS EC50s): 1.0
- EC50 (HepG2; HepG2, fetal bovine serum, read-out: EC50 in FBS): 500 ± 100 nM
- EC50 (HepG2; HepG2, platelet lysate, read-out: EC50 in PL): 500 ± 300 nM
- EC50 (PLC/PRF/5; PLC/PRF/5, fetal bovine serum, read-out: EC50 in FBS): 1100 ± 200 nM
- EC50 (PLC/PRF/5; PLC/PRF/5, platelet lysate, read-out: EC50 in PL): 900 ± 100 nM
- effect of platelet factors on potency and efficacy (PLC/PRF/5; PLC/PRF/5, platelet lysate vs FBS dose-response curves (Fig. 2A)): unaffected
- Ratio PL/FBS (PLC/PRF/5; PLC/PRF/5, ratio of PL/FBS EC50s): 0.8
- EC50 (HuH-7; HuH-7, fetal bovine serum, read-out: EC50 in FBS): 1000 ± 300 nM
- EC50 (HuH-7; HuH-7, platelet lysate, read-out: EC50 in PL): 1300 ± 200 nM
- Ratio PL/FBS (HuH-7; HuH-7, ratio of PL/FBS EC50s): 1.3
- EC50 (SKOV3; Homo sapiens, SK-OV-3, 72 h, log of EC50, negative, read-out: log(EC50) (converted)): 3720 nM
- EC50 (SKOV3; Homo sapiens, SK-OV-3, 72 h, read-out: EC50): 3690 nM
- EC50 (SKOV3; 72 h, read-out: EC50): 3690 nM
